Reference: US20240368241A1, “SYNDECAN PEPTIDES” (Queen Mary University of London, priority 2021, published 2024)
Entries after “also recorded” stand apart in the source; their conditions may differ.

Columns and labels:
murine choroid explants = assay: Ex-vivo angiogenic sprouting assay, murine choroid explants; assay type: cell-based, mouse; conditions: 0.5 μM peptide, 30 ng/ml VEGF, Collagen I matrix
Method: FIG. 7: QM111T inhibits choroidal neovascularization. Murine choroid explants were embedded in a Collagen I matrix and supplemented with 30 ng/ml VEGF and either 0.5 μM of QM111, QM111T, QM107 or a combination.
Thoracic aortas were dissected from either male wistar rats (˜200 g) or 4-5 week old male C57BL6J mice (both obtained from Charles River, UK). The fat surrounding the aortas was removed as were any branches and the tissue sliced into <1 mm rings. Choroid membranes explants were isolated from 21 to 28 day old male C57BL6J mice. Eyes were punctured with scissors and the iris/cornea/lens and retina removed. The resultant Choroid was then cut into 1 mm3 chunks. After dissection both aortic rings and choroid explants were incubated overnight at 37° C. in Opti-MEM (Thermo Fisher Scientific) prior to embedding on ice in 0.15 ml of 1 mg/ml Collagen I (Millipore) in E4 medium (Thermo Fisher Scientific) in 48 well plates (Corning). After 30 mins incubation at 37° C., to set the Collagen, wells were supplemented with 200 ul Opti-MEM with 1% FBS. For rat aortic rings 10 ng/ml of […] (R and D Systems) was added, for mouse aortic and choroid explants 30 ng/ml was used. Treatments at the concentrations indicated were also added to this and media replenished every 3 days. Angiogenic sprouts from explants were counted after 7 days and expressed as sprouts/ring or explant.

rat aortic rings = assay: Ex-vivo angiogenic sprouting assay, rat aortic rings; assay type: cell-based; conditions: peptides 0.5 μM alone or in combination, n=30-31 rings/condition
Method: FIG. 1. […] Schematic diagram showing the GST fusion protein consisting of GST fused at the N-terminus of the complete coding sequence of the murine Syndecan-3 extracellular core protein. This protein was expressed and purified from bacteria and was tested in the rat aortic ring angiogenic sprouting assay. Aortas were dissected from rats before being sliced into 1 mm wide rings. They are then embedded in collagen I with 0.5 μM of either GST or S3ED purified fusion proteins. 10 ng/ml of VEGF-A was then added into feeding media to encourage angiogenesis. After 7 days, angiogenic sprouts were counted. Images were captured on day 7 using a Hamamatsu Orca ER digital camera and processed using Cell M software. Data is from at least 10 rings per condition from 8 […]. (A) Phase contrast micrographs of aortic rings after 7 days. (B) Graph showing the number of sprouts formed after 7 days (*** p≤0.005).
FIG. 4. […] Comparison of the antiangiogenic sequences in the murine and human forms of syndecan-3 (A). Amino acids which are different are highlighted in yellow. Rat aortic rings where treated with 0.5 μM of either QM107, QM111, QM111M or in combination. […]
Thoracic aortas were dissected from either male wistar rats (˜200 g) or 4-5 week old male C57BL6J mice (both obtained from Charles River, UK). […] Angiogenic sprouts from explants were counted after 7 days and expressed as sprouts/ring or explant.

HUVECs = assay: Scratch wound cell migration assay; assay type: cell-based, human; conditions: synthetic peptides alone or in combination
Method: FIG. 2. Miniaturization strategy to identify minimum peptide sequence for inhibition of angiogenesis. Schematic diagram showing the series of deletion mutants generated to ascertain the anti-angiogenic peptide sequence contained in syndecan-3 (A). Purified GST fusion proteins were used at a concentration of 0.5 μM in scratch wound migration assays using confluent monolayers of HUEVCs. Wound closure was measured after 7 hours. In this way we identified that the antiangiogenic properties of Syndecan-3 reside between P195 and A221 of the protein.
FIG. 3. […] Comparison of the antiangiogenic sequences in the murine and human forms of syndecan-3 (A). Amino acids which are different are highlighted in yellow. Scratch wound cell migration assays comparing the anti-migratory effects of QM107, QM111 and QM111M on HUVECS (B). […]
Confluent monolayers of HUVECs were scratched with a pipette tip, cells were then washed twice with PBS prior to the addition of growth medium supplemented with either GST fusion proteins or peptide treatments. Wounds were monitored by time lapse microscopy using an Olympus IX81 Microscope Hamamatsu Orca ER digital camera. Regions of interests in the scratch area were recorded using Cell^M software (Olympus) and micrographs of ROIs taken every 30 min for 16 hours with an Olympus IX81 inverted microscope. The initial and final gap was measured using ImageJ software (NIH).

[1] = test system: pathological retinal neovascularisation (preretinal tufts); assay: Oxygen-induced retinopathy (OIR) mouse model; assay type: in vivo; conditions: mouse pups, 0.5 μM QM111 injected into eye on return to normoxia vs PBS eye, analysed at P17
Method: FIG. 5. […] Data from an oxygen-induced model of retinopathy study. In this study. OIR was generated by exposing mice pups to 75% oxygen for 5 days from P7-P12. On P13, mice are injected with PBS (left eye) and 0.5 μM QM111 (right eye). They were then placed into 20% oxygen from P13-P17 where they underwent hypoxia. which led to neovascularisation taking place. OIR samples were collected at P17 and retinal structures were stained with isolectin GS-IB4. Neovascularisation was quantified by measuring the total areas where preretinal tufts were present. […] Data is from 8 mice.
Neonatal mice (both male and female) at P7 were exposed to 75% oxygen for 5 days with their nursing mothers. At P12, they were returned to normoxia. Animals were euthanized at P12 to determine the area of vaso-obliteration or at P17 to determine the rate of retinal revascularization and pre-retinal neovascularization. […] Sub retinal injections of the treatments described and controls was administered at day P12 upon return to normoxic conditions. Analysis of retinal vasculature was done as previously described. […] Pre-retinal neovascular tufts were readily distinguished from the superficial vascular plexus by focusing just above the inner limiting membrane. Areas of vascular obliteration and pathological neovascularization (neovascular tufts) were quantified using Adobe Photoshop CS3. […]

| Substance | angiogenic sprouting from murine choroid explants (murine choroid explants) | angiogenic sprout formation from rat aortic rings (rat aortic rings) | endothelial cell (HUVEC) migration in scratch wound assay (HUVECs) | pathological neovascularisation (area of preretinal tufts) in oxygen-induced retinopathy [1] |
| --- | --- | --- | --- | --- |
| LPLPLTTVA (listed as Homo sapiens) [QM111T] | inhibited angiogenesis to the same degree as QM111 and QM107 | – | – | – |
| PPFTATT AVIRTTGVRR LLPLPLTTVA (PPFTATTAVIRTTGVRRLLPLPLTTVA; listed as Homo sapiens) [QM111, human syndecan-3 peptide corresponding to the anti-angiogenic region] | – | inhibited to a similar degree | inhibited endothelial cell migration to the same degree | reduced pathological angiogenesis; also recorded: blocks pathological neovascularization |
| QM111M: mouse peptide, 27 amino acids of the anti-angiogenic region (P195-A221) of murine syndecan-3 (PPATATVADVRTTGIQGMLPLPLTTAA; UniProt Q64519 195-221, looked up, fragment) | – | inhibited to a similar degree | inhibited endothelial cell migration to the same degree | – |
